{
  "source": "patent US20190032014A1",
  "about": "“USING MICROBIOTA METABOLITES TO DIFFERENTIATE NAÏVE T-CELLS AND RELATED METHODS TO INDUCE OR PREVENT INFLAMMATORY CONDITIONS” (THE TEXAS A&M UNIVERSITY SYSTEM, priority 2016, published 2019)",
  "test_system": "iTregs",
  "test": "iTreg cytokine expression (TGF-β, IL-10)",
  "assay_type": "cell-based, mice",
  "method": "FOXP3-EGFP naïve CD4+ CD25− cells cultured in αCD3/28 coated wells with Treg-skew cytokines and indole or solvent control were cultured for 72 hours, and assessed for FoxP3 expression and proliferation by CFSE dilution.\nThe iTregs were next assessed for cytokine production when conditioned with indole or butyrate.\nFor flow cytometry, cells are treated with Golgi plug (Brefeldin A) for four hours and then stained with fluorophore-conjugated mAbs against both inflammatory (e.g., IL-6, IL-12, IL-17, TNF-α) and anti-inflammatory (e.g., IL-10, IL-35, TGF-β) cytokines. Samples are stained with the maximum number of antibodies. Furthermore, expression of established Treg markers (FOXP3, CD25hi, CD103, CD62L, GITR, PD-1, CD152, CD127, ICOS, Granzyme-B) [Vignali, D. A., L. W. Collison, and C. J. Workman, Nat Rev Immunol 8(7):523-32. (2008); Chen, J., et al., Int Immunopharmacol 11(5):610-7 (2011)] and markers of an inflammatory phenotype (RORγT) can be analyzed. […] For all conditions, Tregs generated without the TDMM can be used as the control. The effect of the TDMMs on suppression of effector T cell proliferation is determined as described for FIG. 4. Such assays permit determination of whether the iTregs generated with different TDMMs are functional as natural Tregs.",
  "data": [
    {"compound": "c1ccc2[nH]ccc2c1", "note": "[Indole, indole]", "values": [
      {"measurement": "TGF-β secretion", "setting": "indole-conditioned Tregs vs control iTregs (DMF), overnight re-stimulation with αCD3", "value": "secrete more TGF-β than conventional control iTregs (DMF)"},
      {"measurement": "IL-10 expression", "setting": "indole-conditioned iTregs", "value": "inhibition of IL-10 expression"},
      {"measurement": "TGF-β expression", "setting": "indole-conditioned vs butyrate-conditioned iTregs", "value": "increased TGF-β expression over butyrate-conditioned iTregs"}
    ]}
  ]
}
